Measurements reported in patent publication US7906546B2, “Tetrahydrocarbazoles and derivatives” (Hoffmann-La Roche Inc., priority 2004, dated 2011).

Tests used:
[1] = target: T1, human LXRα (Homo sapiens, UniProt Q13133); assay: Radioligand binding assay (scintillation proximity), LXRalpha; details: GST-LXRα-LBD on SPA beads, radioligand displacement
T1 construct: human LXRα (aa 164 to 447); made in house; host or cells: E. coli BL21(pLysS)
T1 sequence (Q13133 164-447): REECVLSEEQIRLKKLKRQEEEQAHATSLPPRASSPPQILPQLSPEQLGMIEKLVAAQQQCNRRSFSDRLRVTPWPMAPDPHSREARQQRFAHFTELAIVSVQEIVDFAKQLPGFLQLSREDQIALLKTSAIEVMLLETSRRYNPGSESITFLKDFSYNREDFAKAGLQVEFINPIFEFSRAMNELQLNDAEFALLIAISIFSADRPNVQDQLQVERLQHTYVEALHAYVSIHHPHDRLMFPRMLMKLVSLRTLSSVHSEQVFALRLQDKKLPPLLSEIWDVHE
Method: (§1) Mammalian expression vectors were constructed to express full-length human LXRα and LXRβ. […] To accomplish this, the portions of the sequences encoding the LBDs were amplified from full-length clones by PCR and then subcloned into the plasmid vectors.
(§2) Induction, expression, and purification of GST-LBD fusion proteins were performed in E. coli strain BL21(pLysS) cells by standard methods (Ref: Current Protocols in Molecular Biology, Wiley Press, edited by Ausubel et al).
(§3) LXRα and LXRβ receptor binding were assayed in buffer consisting of 50 mM HEPES, pH 7.4, 10 mM NaCl, 5 mM MgCl2. For each 96-well reaction, 500 ng of GST-LXRα-LBD or 700 ng of GST-LXRβ-LBD fusion proteins were bound to 80 μg or 40 μg SPA beads (Pharmacia Amersham) respectively, in a final volume of 50 μl by shaking. The resulting slurry was incubated for 1 h at RT and centrifuged for 2 min at 1300×g. The supernatant containing unbound protein was removed, and the semi-dry pellet containing the receptor-coated beads was re-suspended in 50 μl of buffer. […] All binding assays were performed in 96-well plates and the amount of bound ligand was measured on a Packard TopCount using OptiPlates (Packard). […]

[2] = target: T2, human LXRβ (Homo sapiens, UniProt P55055); assay: Radioligand binding assay (scintillation proximity), LXRbeta; details: GST-LXRβ-LBD on SPA beads, radioligand displacement
T2 construct: human LXRβ (aa 155 to 460); made in house; host or cells: E. coli BL21(pLysS)
T2 sequence (P55055 155-460): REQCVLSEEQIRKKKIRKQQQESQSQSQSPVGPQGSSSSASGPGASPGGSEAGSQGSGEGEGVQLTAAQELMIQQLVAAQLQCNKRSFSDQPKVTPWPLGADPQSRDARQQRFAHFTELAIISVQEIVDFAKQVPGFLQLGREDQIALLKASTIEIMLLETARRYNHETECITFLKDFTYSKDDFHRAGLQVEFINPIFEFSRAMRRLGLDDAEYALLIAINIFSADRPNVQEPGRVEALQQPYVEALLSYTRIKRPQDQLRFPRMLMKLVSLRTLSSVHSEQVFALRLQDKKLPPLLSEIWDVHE
Method: as §1, §2, §3

Row | Compound | IC50 [1] [µM] | IC50 [2] [µM]
1 | Cc1nnc([C@@](F)([C@@H]2Cc3[nH]c4ccc(Cl)cc4c3C2)S(=O)(=O)c2cccc(N(C)C)c2)o1 (racemic) [(RS, SR) {3-[(7-chloro-1,2,3,4-tetrahydro-cyclopenta[b]indol-2-yl)-fluoro-(5-methyl-[1,3,4]oxadiazol-2-yl)-methanesulfonyl]-phenyl}-dimethyl-amine] | 0.043 | 0.006
2 | COC(=O)[C@@](C)([C@H]1CCc2c([nH]c3ccc(Cl)cc23)C1)S(=O)(=O)c1ccccc1 (racemic) [(RS,SR)-2-benzenesulfonyl-2-(6-chloro-2,3,4,9-tetrahydro-1H-carbazol-2-yl)-propionic acid methyl ester] | 1.6 | 0.27
